# pEC50, pIC50: −log10 of the molar value.
# Experiments:
# BTK = BTK (Homo sapiens (Human), UniProt Q06187); assay: BTK inhibitory activity; assay type: biochemical
# TMD-8 = assay: CellTiter-Glo Luminescent cell viability assay; assay type: cell-based; conditions: cell survival, 72 hours
# Experimental: (§1) The inhibitory activities of exemplary compounds described herein against select protein kinases and cells were determined. Cell survival following treatment of exemplary compounds described herein was assessed by CellTiter-Glo® Luminescent cell viability assay (Promega). The cells were seeded into 384 well plates with the EL406 Combination Washer Dispenser (BioTek Instruments, Inc.), and a series diluted exemplary compounds (20˜0.0006 μM) were injected into the culture media with the JANUS Automated Workstation (PerkinElmer Inc.). The cells were treated for 72 hours at 37° C. with 5% CO2. Luminescent measurement is performed using the 2104 Envision® Multilabel Reader (PerkinElmer Inc.). EC50 values were calculated with […] PRISM software.
# HBL-1 = assay: CellTiter-Glo Luminescent cell viability assay; assay type: cell-based; conditions: cell survival, 72 hours
# Experimental: as §1
# MWCL-1 = assay: CellTiter-Glo Luminescent cell viability assay; assay type: cell-based; conditions: cell survival, 72 hours
# Experimental: as §1
# BCWM.1 = assay: CellTiter-Glo Luminescent cell viability assay; assay type: cell-based; conditions: cell survival, 72 hours
# Experimental: as §1
# OCI-Ly3 = assay: CellTiter-Glo Luminescent cell viability assay; assay type: cell-based; conditions: cell survival, 72 hours
# Experimental: as §1
# OCI-Ly19 = assay: CellTiter-Glo Luminescent cell viability assay; assay type: cell-based; conditions: cell survival, 72 hours
# Experimental: as §1
# Ramos = assay: CellTiter-Glo Luminescent cell viability assay; assay type: cell-based; conditions: cell survival, 72 hours
# Experimental: as §1
# OCI-Ly7 = assay: CellTiter-Glo Luminescent cell viability assay; assay type: cell-based; conditions: cell survival, 72 hours
# Experimental: as §1
# HCK = HCK (Homo sapiens (Human), UniProt P08631); assay: HCK inhibitory activity; assay type: biochemical
# OPM-2 = assay: CellTiter-Glo Luminescent cell viability assay; assay type: cell-based; conditions: Homo sapiens, cell survival, 72 hours
# Experimental: as §1
# RPMI-8226 = assay: CellTiter-Glo Luminescent cell viability assay; assay type: cell-based; conditions: Homo sapiens, cell survival, 72 hours
# Experimental: as §1
# Chain of BTK (Q06187 whole entry, looked up): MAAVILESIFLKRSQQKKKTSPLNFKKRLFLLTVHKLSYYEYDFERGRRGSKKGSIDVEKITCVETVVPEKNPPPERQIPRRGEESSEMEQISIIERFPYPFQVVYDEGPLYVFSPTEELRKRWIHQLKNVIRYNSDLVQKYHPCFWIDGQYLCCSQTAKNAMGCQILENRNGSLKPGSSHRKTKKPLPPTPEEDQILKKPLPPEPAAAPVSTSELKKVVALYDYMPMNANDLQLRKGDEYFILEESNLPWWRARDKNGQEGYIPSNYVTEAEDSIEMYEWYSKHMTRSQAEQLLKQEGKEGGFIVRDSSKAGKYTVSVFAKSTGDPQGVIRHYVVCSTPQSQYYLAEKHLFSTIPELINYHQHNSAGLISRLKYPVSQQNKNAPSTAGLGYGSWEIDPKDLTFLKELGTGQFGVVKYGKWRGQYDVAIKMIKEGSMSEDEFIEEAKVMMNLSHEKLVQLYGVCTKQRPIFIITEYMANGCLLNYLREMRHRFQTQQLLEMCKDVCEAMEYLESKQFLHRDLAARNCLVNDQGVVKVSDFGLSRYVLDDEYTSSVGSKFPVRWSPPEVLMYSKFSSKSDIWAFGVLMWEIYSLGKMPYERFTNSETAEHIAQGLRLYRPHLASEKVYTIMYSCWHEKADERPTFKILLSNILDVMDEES
# Chain of HCK (P08631 whole entry): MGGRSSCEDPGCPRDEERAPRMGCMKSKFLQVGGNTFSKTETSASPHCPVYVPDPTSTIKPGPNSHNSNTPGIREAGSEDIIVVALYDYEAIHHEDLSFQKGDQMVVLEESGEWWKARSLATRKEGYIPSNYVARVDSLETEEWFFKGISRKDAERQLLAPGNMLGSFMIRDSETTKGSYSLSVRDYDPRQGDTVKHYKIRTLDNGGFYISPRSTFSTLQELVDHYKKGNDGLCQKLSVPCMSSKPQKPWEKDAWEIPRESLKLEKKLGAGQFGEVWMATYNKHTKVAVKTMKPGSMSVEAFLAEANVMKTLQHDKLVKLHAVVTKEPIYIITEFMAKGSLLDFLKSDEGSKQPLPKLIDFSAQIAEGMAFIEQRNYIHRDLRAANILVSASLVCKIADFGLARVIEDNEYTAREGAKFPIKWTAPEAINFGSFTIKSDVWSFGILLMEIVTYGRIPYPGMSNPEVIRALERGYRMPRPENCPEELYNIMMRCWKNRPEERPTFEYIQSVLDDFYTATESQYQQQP
Structure (SMILES),pIC50 (BTK),pEC50 (TMD-8),pEC50 (HBL-1),pEC50 (MWCL-1),pEC50 (BCWM.1),pEC50 (OCI-Ly3),pEC50 (OCI-Ly19),pEC50 (Ramos),pEC50 (OCI-Ly7),pIC50 (HCK),pEC50 (OPM-2),"pEC50 (TMD-8; Homo sapiens, TMD8)","pEC50 (OCI-Ly3; Homo sapiens, OCI-Ly3)",pEC50 (HBL-1; HBL1),"pEC50 (OCI-Ly19; Homo sapiens, OCI-LY19)","pEC50 (OCI-Ly7; Homo sapiens, OCI-Ly7)",pEC50 (BCWM.1; BCWM1),pEC50 (RPMI-8226),"pEC50 (Ramos; Homo sapiens, Ramos)"
C=CC(=O)N1CC[C@H](Nc2nc(CN3CCOCC3)cc(Nc3ncc(C(=O)Nc4c(C)cccc4Cl)s3)n2)C1 [Compound I-1],8.79,6.52,6.28,7.30,7.13,–,–,–,–,–,–,–,–,–,–,–,–,–,–
C=CC(=O)N1CC[C@H](Nc2nc(CN3CCOCC3)cc(Nc3ncc(C(=O)Nc4c(C)cccc4C)s3)n2)C1 [Compound I-2],8.79,6.51,5.78,7.17,7.39,< 4.70,< 4.70,< 4.70,–,–,–,–,–,–,–,–,–,–,–
C=CC(=O)N1CC[C@H](Nc2nccc(Nc3ncc(C(=O)Nc4c(C)cccc4C)s3)n2)C1 [Compound I-3],9.22,6.80,6.17,7.26,7.71,4.40,4.89,< 4.70,6.43,–,–,–,–,–,–,–,–,–,–
C=CC(=O)N1CC[C@@H](Nc2nccc(Nc3ncc(C(=O)Nc4c(C)cccc4C)s3)n2)C1 [Compound I-4],8.86,6.50,6.35,7.07,7.28,–,5.37,< 4.70,–,–,–,–,–,–,–,–,–,–,–
C=CC(=O)N1CCC[C@@H](Nc2nccc(Nc3ncc(C(=O)Nc4c(C)cccc4C)s3)n2)C1 [Compound I-6],8.72,7.10,6.64,7.03,7.16,–,–,–,6.28,–,–,–,–,–,–,–,–,–,–
C=CC(=O)N1CCCCC(Nc2nccc(Nc3ncc(C(=O)Nc4c(C)cccc4C)s3)n2)C1 (stereo not drawn) [Compound I-7],> 9.31,7.31,7.15,7.72,7.66,–,6.40,6.88,–,> 9.31,–,–,–,–,–,–,–,–,–
C=CC(=O)N1CCC(CNc2nccc(Nc3ncc(C(=O)Nc4c(C)cccc4C)s3)n2)C1 (stereo not drawn) [Compound I-8],> 9.31,6.52,6.28,6.99,7.12,–,5.42,5.10,–,> 9.31,–,–,–,–,–,–,–,–,–
CCC(=O)N1CC[C@H](Nc2nccc(Nc3ncc(C(=O)Nc4c(C)cccc4C)s3)n2)C1 [Compound I-9],9.30,7.15,6.66,7.60,8.01,4.84,5.00,< 4.70,–,> 9.31,–,–,–,–,–,–,–,–,–
C=CC(=O)N1CC[C@H](Nc2nccc(Nc3ncc(C(=O)Nc4c(C)cccc4Cl)s3)n2)C1 [Compound I-10],8.76,6.00,5.79,6.72,6.77,–,5.24,7.92,–,–,–,–,–,–,–,–,–,–,–
C=CC(=O)N1CCCCC(Nc2nccc(Nc3ncc(C(=O)Nc4c(C)cccc4Cl)s3)n2)C1 (stereo not drawn) [Compound I-11],8.26,6.30,6.21,6.61,6.89,–,5.43,5.80,–,–,–,–,–,–,–,–,–,–,–
C=CC(=O)N1CCCC(Nc2nc(CN3CCOCC3)cc(Nc3ncc(C(=O)Nc4c(C)cccc4C)s3)n2)C1 (stereo not drawn) [Compound I-12],–,6.34,5.92,6.50,7.12,–,–,–,6.51,–,–,–,–,–,–,–,–,–,–
"Cc1nc(Nc2ncc(C(=O)Nc3c(C)cccc3Cl)s2)cc(N2CCN(CCO)CC2)n1 [Dasatinib, dasatinib, reference compound]",–,–,–,8.13,–,–,–,–,–,–,5.15,7.73,5.09,6.72,5.41,6.81,8.92,5.27,5.34
C=CC(=O)N1CCCC(Cn2ccc(Nc3ncc(C(=O)Nc4c(C)cccc4Cl)s3)n2)C1 (stereo not drawn) [II-2],> 9.31,6.03,6.00,6.78,6.71,–,5.18,< 4.70,–,–,–,–,–,–,–,–,–,–,–
C=CC(=O)N1CCC(n2cc(Nc3ncc(C(=O)Nc4c(C)cccc4Cl)s3)cn2)CC1 [II-3],7.70,5.60,5.44,6.11,6.16,–,5.00,< 4.70,–,–,–,–,–,–,–,–,–,–,–
C=CC(=O)N1CC[C@H](Nc2nccc(Nc3nc4ccc(Oc5ccccc5)nc4s3)n2)C1 [III-1],7.06,5.41,5.49,5.39,5.74,–,5.90,5.43,–,–,–,–,–,–,–,–,–,–,–
C=CC(=O)N1CC[C@@H](Nc2nccc(Nc3nc4ccc(Oc5ccccc5)nc4s3)n2)C1 [III-2],6.55,5.58,5.53,5.87,6.04,–,5.96,5.64,–,–,–,–,–,–,–,–,–,–,–
C=CC(=O)N1CCC[C@H](Nc2nccc(Nc3nc4ccc(Oc5ccccc5)nc4s3)n2)C1 [III-3],7.71,5.38,5.53,5.24,5.57,–,5.60,5.07,–,–,–,–,–,–,–,–,–,–,–
C=CC(=O)N1CCC[C@@H](Nc2nccc(Nc3nc4ccc(Oc5ccccc5)nc4s3)n2)C1 [III-4],6.44,5.67,5.59,5.67,6.09,–,5.93,5.66,–,–,–,–,–,–,–,–,–,–,–
C=CC(=O)N1CCCCC(Nc2nccc(Nc3nc4ccc(Oc5ccccc5)nc4s3)n2)C1 (stereo not drawn) [III-5],8.04,5.91,6.05,5.47,5.92,–,5.88,5.57,–,–,–,–,–,–,–,–,–,–,–
Cn1ccc(Nc2nc3ccc(Oc4ccccc4)nc3s2)n1 [III-6],5.59,6.33,6.35,5.66,6.57,–,6.49,6.13,–,–,–,–,–,–,–,–,–,–,–
Cn1cc(Nc2nc3ccc(Oc4ccccc4)nc3s2)cn1 [III-7],< 5.00,< 4.70,< 4.70,< 4.70,< 4.70,–,5.02,< 4.70,–,< 5.00,–,–,–,–,–,–,–,–,–
c1ccc(Oc2ccc3nc(Nc4cnn(C5CCOCC5)c4)sc3n2)cc1 [III-8],< 5.00,4.84,< 4.70,< 4.70,5.14,–,4.90,< 4.70,–,< 5.00,–,–,–,–,–,–,–,–,–
c1ccc(Oc2ccc3nc(Nc4cnn(C5CCNCC5)c4)sc3n2)cc1 [III-9],5.58,4.74,< 4.70,4.78,5.08,–,5.15,4.93,–,–,–,–,–,–,–,–,–,–,–

# Reference: patent US10844077B2, “Thiazolyl-containing compounds for treating proliferative diseases” (Dana-Farber Cancer Institute, Inc., priority 2014, dated 2020)
